# Test results as given in patent publication US12116344B2, “Crystalline forms of a pharmaceutical compound” (Azafaros B.V., priority 2020, dated 2024).
# Entries after “also recorded” stand apart in the source; their conditions may differ.
# Key:
# [1] = Dynamic vapour sorption (DVS), hygroscopicity; type: physicochemical; settings: listed as Form 3
# Procedure: Dynamic vapour sorption (DVS) measurements were performed with an SPS11-100n “Sorptions Prüfsystem” from ProUmid (formerly “Projekt Messtechnik”), August-Nagel-Str. 23, 89079 Ulm (Germany). About 5 mg to 20 mg of sample was put into an aluminum sample pan. Humidity change rates of 5% per hour were used. The applied measurement program can be described as follows:
# The sample was placed on an aluminium or platinum holder on top of a microbalance and allowed to equilibrate at a relative humidity (RH) of 50% before starting the pre-defined humidity programs: • (1) 2 h at 50% RH • (2) 50→0% RH (5%/h); 5 h at 0% RH • (3) 0→95% RH (5%/h); 5 h at 95% RH • (4) 95→0% RH (5%/h); 5 h at 0% RH • (5) 0→95% RH (5%/h); 5 h at 95% RH • (6) 95→50% RH (5%/h); 2 h at 50% RH
# [2] = test system: glucosylceramide C16:0 and C18:0; experiment: Glucosylceramide levels in brain homogenate of NPC mice (HPLC-MS/MS); type: in vivo
# Procedure: 24 NPC1 (−/−) mice (groups D to I) were treated per oral gavage (10 mL/kg) with AZ-3102-00 from post-natal day 11 (P11) to post-natal-day 70 (P70). Dosing will start at 1.5 mg/kg from P11 to P25, followed by 3 mg/kg from P26 to P70. Control mice included 6 NPC1 (−/−) and 4 NPC (+/−) mice treated with vehicle and 4 NPC (+/+) mice received AZ-3102-00 (groups A to C).
# Brain tissues were homogenized in a solution of ultrapure water:methanol (1:1) with 0.1% formic acid (4 mL for each gram of tissue) using a FastPrep 24™ Microtube homogenizer. Tissues homogenates were then mixed for protein precipitation with a solution of acetonitrile:ultrapure water:methanol (90:5:5) containing 500 nM of GlcCer C17:0 and 0.1% formic acid. After a 5-min incubation at room temperature, the samples were centrifuged for 5 min (13000 rpm, 20° C.) and 50 μL of the supernatants were transferred into a siliconized MTP 96-well plate.
# Concentrations of glucosylceramide C16:0 (GlcCer C16:0), glucosylceramide C18:0 (GlcCer C18:0), and glucosylceramide C24:1 (GlcCer C24:1) brain, samples were quantified by HPLC-MS/MS detection in the multiple-reaction-monitoring mode (MRM). Supernatants were analysed by HPLC-MS/MS while using a HALO HILIC column (150*4.6 mm, 2.7 μm) from Advanced Materials Technology for distinguishing between the galactosyl- and -glucosylceramide isomers. […] Analysis of GlcCer C16:0 and GlcCer C18:0 was performed using a gradient with mobile phase A: 5 mM Ammonium Acetate in 94.5% acetonitrile 2.5% Methanol, 2.5% ultrapure water and 0.5% formic acid and mobile phase B: ultrapure Water and 0.1% formic acid. The LLOQ in brain samples for GlcCer 16:0, GlcCer 18:0 and GlcCer 24:1 was […] tissue, respectively.
# [3] = target: T1, non-lysosomal glucosylcerebrosidase (GbA2) (Homo sapiens, UniProt Q9HCG7); settings: stated in words only, no test described; cited from earlier work
# T1 sequence (Q9HCG7 1-927): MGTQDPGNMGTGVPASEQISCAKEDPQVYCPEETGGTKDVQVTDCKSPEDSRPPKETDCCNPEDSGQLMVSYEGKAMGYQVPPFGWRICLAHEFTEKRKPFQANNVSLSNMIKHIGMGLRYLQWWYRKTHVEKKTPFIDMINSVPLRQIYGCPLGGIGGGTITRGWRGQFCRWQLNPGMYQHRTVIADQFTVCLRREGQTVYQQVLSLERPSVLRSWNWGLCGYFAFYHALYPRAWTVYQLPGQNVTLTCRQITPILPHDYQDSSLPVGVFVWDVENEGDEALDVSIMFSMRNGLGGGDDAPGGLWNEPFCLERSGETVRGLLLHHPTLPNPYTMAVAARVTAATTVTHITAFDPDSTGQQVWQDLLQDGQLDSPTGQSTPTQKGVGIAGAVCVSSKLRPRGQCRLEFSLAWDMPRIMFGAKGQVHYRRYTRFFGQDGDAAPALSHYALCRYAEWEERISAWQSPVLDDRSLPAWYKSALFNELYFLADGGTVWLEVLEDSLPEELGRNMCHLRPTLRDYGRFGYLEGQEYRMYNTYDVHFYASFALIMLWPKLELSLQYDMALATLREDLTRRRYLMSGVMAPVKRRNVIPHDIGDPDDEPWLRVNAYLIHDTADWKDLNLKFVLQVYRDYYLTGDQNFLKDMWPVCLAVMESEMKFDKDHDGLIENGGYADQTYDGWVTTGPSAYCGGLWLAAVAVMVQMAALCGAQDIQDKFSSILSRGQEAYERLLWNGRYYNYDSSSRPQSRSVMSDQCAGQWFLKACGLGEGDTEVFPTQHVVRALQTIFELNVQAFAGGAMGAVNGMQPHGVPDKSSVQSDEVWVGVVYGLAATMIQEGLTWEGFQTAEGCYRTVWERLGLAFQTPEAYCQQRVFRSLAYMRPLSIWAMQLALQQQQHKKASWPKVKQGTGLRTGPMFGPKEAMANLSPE
# [4] = whole brain homogenates, daily oral dosing PND 11-70
compound,measurement,setting,value
OC[C@H]1[C@@H](O)[C@H](O)[C@@H](O)CN1CCCCCOCc1ccc(-c2ccccc2)c(F)c1 [AZ-3102],Hygroscopicity (description),[1],non-hygroscopic or substantially non-hygroscopic; also recorded: substantially non-hygroscopic
same,Levels of glucosylceramide C16:0 and C18:0 in the brain,[2]; repeat oral administration PND 11-70,increased levels
same,Increase of GlcCer 16:0 compared to vehicle treated animals,[2]; [4],greater than 2 fold
same,Increase of GlcCer 18:0 compared to vehicle treated animals,[2]; [4],approximately 9 fold
same,Potency as inhibitor of GbA2,[3],highly potent (nM)
